According to ChEMBL document CHEMBL4334464, “From Phenylthiazoles to Phenylpyrazoles: Broadening the Antibacterial Spectrum toward Carbapenem-Resistant Bacteria” (J Med Chem, 2019):
Values after ≈ are worked out from the molar mass of the structure shown. Active and inactive are the calls of the source. No cut-off for these calls is given here.

Experiments:
Staphylococcus aureus [1] = assay: Antibacterial activity against methicillin-resistant Staphylococcus aureus NRS384-USA300 clinical isolates after 18 to 20 hrs in aerobic condition by CLSI protocol based broth microdilution assay; format: functional
Staphylococcus aureus [2] = assay: Antibacterial activity against Methicillin-sensitive Staphylococcus aureus NRS107 clinical isolates after 18 to 20 hrs in aerobic condition by CLSI protocol based broth microdilution assay; format: functional
Staphylococcus aureus [3] = assay: Antibacterial activity against linezolid-resistant/Methicillin-resistant Staphylococcus aureus NRS119 clinical isolates after 18 to 20 hrs in aerobic condition by CLSI protocol based broth microdilution assay; format: functional
Staphylococcus aureus [4] = assay: Antibacterial activity against Methicillin-resistant Staphylococcus aureus NRS385-USA500 clinical isolates after 18 to 20 hrs in aerobic condition by CLSI protocol based broth microdilution assay; format: functional
Staphylococcus aureus [5] = assay: Antibacterial activity against Methicillin-resistant Staphylococcus aureus USA700-NRS386 clinical isolates after 18 to 20 hrs in aerobic condition by CLSI protocol based broth microdilution assay; format: functional
Staphylococcus aureus [6] = assay: Antibacterial activity against vancomycin-resistant Staphylococcus aureus isolate 10 after 18 to 20 hrs in aerobic condition by CLSI-based broth microdilution assay; format: functional
Staphylococcus aureus [7] = assay: Antibacterial activity against vancomycin-resistant Staphylococcus aureus isolate 12 after 18 to 20 hrs in aerobic condition by CLSI-based broth microdilution assay; format: functional
Staphylococcus aureus [8] = assay: Bactericidal activity against methicillin-resistant Staphylococcus aureus NRS123-USA400 clinical isolates at 5 times MIC incubated over 24 hrs followed by replating on tryptic soy agar plate and further incubated for 18 to 20 hrs by time kill assay; format: functional, organism-based
Acinetobacter baumannii [9] = assay: Antibacterial activity against Acinetobacter baumannii ATCC BAA 1141 clinical isolates after 18 to 20 hrs in aerobic condition by CLSI-based broth microdilution assay; format: functional
Acinetobacter baumannii [10] = assay: Antibacterial activity against Acinetobacter baumannii NR 17786 clinical isolates after 18 to 20 hrs in aerobic condition by CLSI-based broth microdilution assay; format: functional
Escherichia coli [11] = assay: Antibacterial activity against Escherichia coli BW25113 clinical isolates after 18 to 20 hrs in aerobic condition by CLSI-based broth microdilution assay; format: functional
Escherichia coli [12] = assay: Antibacterial activity against Escherichia coli ATCC 35150 clinical isolates after 18 to 20 hrs in aerobic condition by CLSI-based broth microdilution assay; format: functional
[13] = Antibacterial activity against Enterobacter cloacae subsp. cloacae ATCC BAA-1143 clinical isolates after 18 to 20 hrs in aerobic condition by CLSI-based broth microdilution assay; format: functional
Salmonella enterica = assay: Antibacterial activity against Salmonella enterica NR-170 clinical isolates after 18 to 20 hrs in aerobic condition by CLSI-based broth microdilution assay; format: functional
Salmonella enteritidis = assay: Antibacterial activity against Salmonella enteritidis ATCC 13076 clinical isolates after 18 to 20 hrs in aerobic condition by CLSI-based broth microdilution assay; format: functional, Salmonella enterica subsp. enterica serovar Enteritidis; conditions: Salmonella enterica
Pseudomonas aeruginosa [14] = assay: Antibacterial activity against Pseudomonas aeruginosa ATCC 15442 clinical isolates after 18 to 20 hrs in aerobic condition by CLSI-based broth microdilution assay; format: functional
Escherichia coli [15] = assay: Antibacterial activity against carbapenem-resistant Escherichia coli BAA-2452 clinical isolates after 18 to 20 hrs in aerobic condition by CLSI-based broth microdilution assay; format: functional
Escherichia coli [16] = assay: Antibacterial activity against carbapenem-resistant Escherichia coli BAA-2469 clinical isolates after 18 to 20 hrs in aerobic condition by CLSI-based broth microdilution assay; format: functional
Klebsiella pneumoniae [17] = assay: Antibacterial activity against carbapenem-resistant Klebsiella pneumoniae ATCC BAA-1705 clinical isolates after 18 to 20 hrs in aerobic condition by CLSI-based broth microdilution assay; format: functional
Klebsiella pneumoniae [18] = assay: Antibacterial activity against carbapenem-resistant Klebsiella pneumoniae ATCC BAA-2146 clinical isolates after 18 to 20 hrs in aerobic condition by CLSI-based broth microdilution assay; format: functional
Acinetobacter baumannii [19] = assay: Antibacterial activity against carbapenem-resistant Acinetobacter baumannii ATCC BAA 1605 clinical isolates after 18 to 20 hrs in aerobic condition by CLSI-based broth microdilution assay; format: functional
Pseudomonas aeruginosa [20] = assay: Antibacterial activity against carbapenem-resistant Pseudomonas aeruginosa ATCC 1744 clinical isolates after 18 to 20 hrs in aerobic condition by CLSI-based broth microdilution assay; format: functional
Escherichia coli [21] = assay: Inhibition of 6His tagged Escherichia coli UPPP expressed in Escherichia coli C41(DE3) cells preincubated for 15 mins followed by FPP substrate addition and measured after 20 mins by malachite green reagent based assay
Staphylococcus aureus [22] = assay: Ratio of MBC to MIC for Methicillin-sensitive Staphylococcus aureus ATCC 6538 clinical isolates; format: functional
[23] = system: Staphylococcus epidermidis; assay: Ratio of MBC to MIC for Staphylococcus epidermidis NRS101 clinical isolates; format: functional
Enterococcus faecalis = assay: Ratio of MBC to MIC for vancomycin-resistant Enterococcus faecalis ATCC 51299 clinical isolates; format: functional
Enterococcus faecium = assay: Ratio of MBC to MIC for vancomycin-resistant Enterococcus faecium ATCC 700221 clinical isolates; format: functional
Streptococcus pneumoniae = assay: Ratio of MBC to MIC for cephalosporin-resistant Streptococcus pneumoniae ATCC 51916 clinical isolates; format: functional
Acinetobacter baumannii [24] = assay: Ratio of MBC to MIC for Acinetobacter baumannii ATCC BAA 1141 clinical isolates; format: functional
Acinetobacter baumannii [25] = assay: Ratio of MBC to MIC for Acinetobacter baumannii ATCC BAA 1747 clinical isolates; format: functional
Acinetobacter baumannii [26] = assay: Ratio of MBC to MIC for Acinetobacter baumannii NR 17785 clinical isolates; format: functional
Acinetobacter baumannii [27] = assay: Ratio of MBC to MIC for Acinetobacter baumannii NR 17786 clinical isolates; format: functional
Escherichia coli [28] = assay: Ratio of MBC to MIC for Escherichia coli ATCC 1411 clinical isolates; format: functional
[29] = system: Enterobacter cloacae subsp. cloacae; assay: Ratio of MBC to MIC for Enterobacter cloacae subsp. cloacae ATCC BAA-1143 clinical isolates; format: functional
Klebsiella pneumoniae [30] = assay: Ratio of MBC to MIC for Klebsiella pneumoniae BAA-1706 after 18 to 20 hrs in aerobic condition by CLSI-based broth microdilution assay; format: functional
Klebsiella pneumoniae [31] = assay: Ratio of MBC to MIC for Klebsiella pneumoniae BAA-1144 clinical isolates; format: functional
Shigella flexneri = assay: Ratio of MBC to MIC for Shigella flexneri ATCC 9199 clinical isolates; format: functional
Pseudomonas aeruginosa [32] = assay: Ratio of MBC to MIC for Pseudomonas aeruginosa ATCC 9027 clinical isolates; format: functional
Pseudomonas aeruginosa [33] = assay: Ratio of MBC to MIC for Pseudomonas aeruginosa ATCC 25619 clinical isolates; format: functional
Pseudomonas aeruginosa [34] = assay: Ratio of MBC to MIC for Pseudomonas aeruginosa ATCC 15442 clinical isolates; format: functional
Clostridioides difficile = assay: Ratio of MBC to MIC for Clostridium difficile ATCC BAA 1870; format: functional
Acinetobacter baumannii [35] = assay: microbe, parasite or virus in culture; conditions: ATCC BAA 1747
Description: Antibacterial activity against Acinetobacter baumannii ATCC BAA 1747 after 18 to 20 hrs in aerobic condition by CLSI-based broth microdilution assay

Pseudomonas aeruginosa [36] = assay: microbe, parasite or virus in culture; conditions: ATCC 9027
Description: Antibacterial activity against Pseudomonas aeruginosa ATCC 9027 clinical isolates after 18 to 20 hrs in aerobic condition by CLSI-based broth microdilution assay

Pseudomonas aeruginosa [37] = assay: microbe, parasite or virus in culture; conditions: ATCC 25619
Description: Antibacterial activity against Pseudomonas aeruginosa ATCC 25619 clinical isolates after 18 to 20 hrs in aerobic condition by CLSI-based broth microdilution assay

`CCCCCC#Cc1ccc(-n2ncc(/C(C)=N/NC(=N)N)c2C)cc1` gave an MIC (Staphylococcus aureus [1]) of 2 µg/mL (≈ 5.71 µM), an MIC (Staphylococcus aureus [2]) of 2 µg/mL (≈ 5.71 µM) and an MIC (Staphylococcus aureus [3]) of 2 µg/mL (≈ 5.71 µM). It also gave an MIC (Staphylococcus aureus [4]) of 2 µg/mL (≈ 5.71 µM), an MIC (Staphylococcus aureus [5]) of 2 µg/mL (≈ 5.71 µM) and an MIC (Staphylococcus aureus [6]) of 2 µg/mL (≈ 5.71 µM). The MIC (Staphylococcus aureus [7]) was 2 µg/mL (≈ 5.71 µM), the Activity (Staphylococcus aureus [8]) was “Active” and the MIC (Acinetobacter baumannii [9]) was 4 µg/mL (≈ 11.4 µM). It also gave an MIC (Acinetobacter baumannii [10]) of 8 µg/mL (≈ 22.8 µM), an MIC (Escherichia coli [11]) of 8 µg/mL (≈ 22.8 µM) and an MIC (Escherichia coli [12]) of 8 µg/mL (≈ 22.8 µM). It also gave an MIC [13] of 8 µg/mL (≈ 22.8 µM), an MIC (Salmonella enterica) of 8 µg/mL (≈ 22.8 µM) and an MIC (Salmonella enteritidis) of 8 µg/mL (≈ 22.8 µM). The MIC (Pseudomonas aeruginosa [14]) was 32 µg/mL (≈ 91.3 µM), the MIC (Escherichia coli [15]) was 16 µg/mL (≈ 45.7 µM) and the MIC (Escherichia coli [16]) was 8 µg/mL (≈ 22.8 µM). The MIC (Klebsiella pneumoniae [17]) was 16 µg/mL (≈ 45.7 µM), the MIC (Klebsiella pneumoniae [18]) was 32 µg/mL (≈ 91.3 µM) and the MIC (Acinetobacter baumannii [19]) was 8 µg/mL (≈ 22.8 µM). For the same molecule, the MIC (Pseudomonas aeruginosa [20]) was 32 µg/mL (≈ 91.3 µM), the inhibition (Escherichia coli [21]) was “inactive” and the Ratio (Staphylococcus aureus [22]) was “<=2”. For the same molecule, the Ratio [23] was <3, the Ratio (Enterococcus faecalis) was <3 and the Ratio (Enterococcus faecium) was <3. The Ratio (Streptococcus pneumoniae) was <3, the Ratio (Acinetobacter baumannii [24]) was “>=1” and the Ratio (Acinetobacter baumannii [25]) was “>=1”. For the same molecule, the Ratio (Acinetobacter baumannii [26]) was “>=1”, the Ratio (Acinetobacter baumannii [27]) was “>=1” and the Ratio (Escherichia coli [28]) was “>=1”. For the same molecule, the Ratio [29] was > 1, the Ratio (Klebsiella pneumoniae [30]) was “>=1” and the Ratio (Klebsiella pneumoniae [31]) was “>=1”. The Ratio (Shigella flexneri) was “>=1”, the Ratio (Pseudomonas aeruginosa [32]) was “>=1” and the Ratio (Pseudomonas aeruginosa [33]) was “>=1”. The Ratio (Pseudomonas aeruginosa [34]) was “>=1”, the Ratio (Clostridioides difficile) was <3 and the MIC (Acinetobacter baumannii [35]) was 4 µg/mL (≈ 11.4 µM). The MIC (Pseudomonas aeruginosa [36]) was 16 µg/mL (≈ 45.7 µM) and the MIC (Pseudomonas aeruginosa [37]) was 32 µg/mL (≈ 91.3 µM).
